Reference: publication PMC4142417, “Epigenetic Impacts of Ascorbate on Human Metastatic Melanoma Cells” (Frontiers in Oncology, 2014)
Read-outs that look alike come from different tables or passages of the source.

Experiments:
[1] = tested on: BLM melanoma cells; assay: Cell-cycle analysis (propidium iodide, FACS); assay type: cell-based, human; conditions: 8 mM for 1 h
Method: BLM cells were incubated with ascorbate at 8 mM. After 0–24 h (in 2 h intervals) the cells (1 × 10^6) were harvested, washed with cold PBS, fixed with 75% ethanol, and incubated at 4°C for at least 1 h. Cells were then centrifuged and washed twice in cold PBS. Intracellular DNA was labeled with propidium iodide solution [propidium iodide […] (Sigma) and RNase […] (Thermo Scientific) in PBS] and incubated at 4°C for 30 min in the dark. Cell cycle was analyzed using flow cytometry and FACSDiva software (BD Biosciences, Heidelberg, Germany). As shown previously ([5]), pharmacological doses of ascorbate in the low millimolar-range induce cell death in human cancer cells. However, since in the latter publication we only performed end-point analyses 24 h after incubation of the cells with ascorbate, for the current project we exposed BLM cells to pharmacological 8 mM ascorbate for 1 h, and the cells were ethanol-fixed every 2 h for 24 h to closely monitor cell-cycle alterations at 2 h intervals over 24 h. The cell cycle was analyzed with FACS after staining of the cells with propidium iodide. […] At 12 h post ascorbate exposure only a small percentage of the BLM cells were shifted toward the sub-G1 fraction of cells. Therefore, the 12 h time point after ascorbate exposure was chosen for the following experiments.  Figure 2 Pharmacological ascorbate induces apoptosis in human metastatic BLM melanoma cells in a time-dependent manner. BLM cells were treated with 8 mM ascorbate for 1 h. Cells were ethanol-fixed every 2 h for 24 h, stained with propidium iodide, and cell cycle was analyzed with FACS. Depicted are the FACS plots for the untreated control cells and for 2, 4, 6, 8, 12, 16, 20, and 24 h after ascorbate exposure. […] Gray colored graphs indicate the control cells; black colored graphs (2–8 h) the initial shift into G2/M phase; red colored graphs (12–24 h) the subsequent shift into sub-G1 fraction.

[2] = tested on: human HDACs (HeLa nuclear extract); assay: HDAC-inhibitor screening assay with HeLa nuclear extract; assay type: biochemical; conditions: 5–8000 μM, 2 h at 37°C
Method: Determination of a possible HDAC-inhibitor activity of ascorbate was done by using the HDAC assay kit (Active Motif, Rixensart, Belgium). Ascorbate was diluted in assay buffer to the final concentrations of 5, 10, 20, 50, 100, 200 μM, and 8 mM. Assay was performed according to manufacturer’s protocol. Briefly, ascorbate was incubated with HeLa nuclear extract as a source of human HDACs for 2 h at 37°C and the developing time was set to 10 min. Each experiment was performed in triplicates and repeated three times.
(A) Overall HDAC inhibition in cellular extracts of the human cell line HeLa by increasing concentrations of ascorbate (5–8000 μM). As reference inhibitor 100 μM suberoylanilide hydroxamic acid (SAHA) was used. Every concentration was tested three times in triplicates. (B) Specific fluorometric profiling assay using recombinant human HDACs of classes I, II, and IV. Specific inhibition values were generated for the treatment with 50 μM and 8 mM ascorbate. Inhibition values for every HDAC were yielded by two experiments, each performed in duplicates. Shown are mean ± SD. One-way ANOVA Dunnett’s multiple comparison test, n.s. indicates not significant.

[3] = tested on: human HDAC1, HDAC2, HDAC3, HDAC4, HDAC5, HDAC6, HDAC7, HDAC8, HDAC9, HDAC10, and HDAC11; assay: HDAC-inhibitor profiling assay (fluorometric, recombinant HDACs of classes I, II, and IV); assay type: biochemical; conditions: 50 μM and 8 mM ascorbate
Method: The HDAC profiling assay was performed on basis of fluorometric measurement by Scottish Biomedical (Scottish Biomedical, Glasgow, UK). The percentage inhibition values of 50 μM and 8 mM ascorbate against human HDAC1, HDAC2, HDAC3, HDAC4, HDAC5, HDAC6, HDAC7, HDAC8, HDAC9, HDAC10, and HDAC11 was determined. Both concentrations of ascorbate were tested in two experiments, each in duplicates.

[4] = tested on: DNA methyltransferase (DNMT) activity in MeWo melanoma cells; assay: DNMT activity in nuclear extracts of treated MeWo cells; assay type: cell-based, human; conditions: 200 μM for 1 h, nuclear extract 12 h after treatment
Method: (§1) DNMT activity was analyzed in the nuclear extracts with the DNMT activity/inhibition assay (Active Motif) according to the procedure described by the manufacturer.
(§2) Global DNMT activity was determined in nuclear extracts of MeWo and BLM cells 12 h after 1 h treatment with 200 μM or 8 mM ascorbate.

[5] = tested on: DNA methyltransferase (DNMT) activity in BLM melanoma cells; assay: DNMT activity in nuclear extracts of treated BLM cells; assay type: cell-based, human; conditions: 200 μM for 1 h, nuclear extract 12 h after treatment
Method: as §1, §2

[6] = tested on: miRNA expression in BLM melanoma cells; assay: miRNA expression chip analysis; assay type: cell-based, human
Method: microRNA was isolated from BLM cells using the miRNeasy kit (Qiagen, Hilden, Germany) according to the procedure described by the manufacturer. miRNA expression analysis was performed on BLM melanoma cells (five groups: untreated; 200 μM, 8 mM ascorbate treated, 4 and 12 h after the 1 h treatment, all in triplicates) using the human miRNA Microarray Release 14.0, 8x15K (Agilent, Waldbronn, Germany) based on Sanger miRbase (release 14.0). Two hundred nanograms of RNA were used per sample. The miRNA expression analysis was kindly performed at the Genomic Core Facility of the European Molecular Biology Laboratory (EMBL, Heidelberg, Germany) according to the supplier’s instructions. Evaluation of raw data generated at the Genomic Core Facility of the EMBL was performed as described previously ([32]).
Figure 6 Ascorbate alters the expression of miRNA in melanoma cells. A miRNA expression chip analysis was performed on human metastatic BLM melanoma cells (5 groups: untreated, 200 μM ascorbate, 8 mM ascorbate, both 4 and 12 h after ascorbate exposure; all in triplicates) using the human miRNA Microarray Release 14.0, 8x15K (Agilent Technologies) based on Sanger miRbase (release 14.0). A total of 151 miRNAs were differentially expressed in response to ascorbate.

[7] = tested on: 9 human melanoma cell lines; parameters: method as in PMID 24330097; conditions: ref [5], cited from earlier work
[8] = tested on: 60 cancer cell lines of the NCI60 panel; parameters: method as in PMID 24330097; conditions: ref [5], read-out: overall IC50 of all 60 cancer cell lines; cited from earlier work
[9] = parameters: method as in PMID 23670640; conditions: i.v. administration of 70 g/m^2; ref [16]; cited from earlier work
[10] = tested on: LOX-IMVI melanoma cells; parameters: method as in PMID 24330097; conditions: 8 mM, ref [5]; cited from earlier work
[11] = tested on: GLUT-1 expression (HIF-1α downstream target) in melanoma cell lines; parameters: method as in PMID 24330097; conditions: treatment at the individual IC50 concentrations, ref [5]; cited from earlier work
[12] = 8 mM vs. 200 μM for 1 h, after 12 h
[13] = 12 h after 1 h exposure, 8 mM vs. 200 μM ascorbate

In the case of `O=C1O[C@H]([C@@H](O)CO)C(O)=C1O` [ascorbate, ascorbic acid], the “G2/M fraction of cells” value ([1]; 2 to 8 h after exposure) is reported as “steadily increased”, the “sub-G1 fraction of DNA fragmented cells (indicative for apoptosis)” value ([1]; 12 h post-treatment) is reported as “prominent increase” and the “cell cycle shift toward sub-G1 fraction” value ([1]; 20 h post-treatment) is reported as “completely shifted toward the sub-G1 fraction”. The “overall HDAC inhibition” value [2] was “only a marginal inhibitory activity”, the “inhibition of the 11 human HDACs” value [3] was “neither the physiological 50 μM nor the pharmacologic 8 mM ascorbate showed a significant inhibition” and the “increase of DNMT activity” value [4] was 4%. For the same compound, the “increase of DNMT activity” value [5] was 18%, the “number of miRNAs differentially expressed in response to ascorbate” value ([6]; 200 μM or 8 mM for 1 h, 4 and 12 h after exposure) was 151 and the “number of up-regulated miRNAs” value [6, 12] was 32. For the same compound, the “up-regulation of the 32 miRNAs” value [6, 12] was 4- to 38 fold, the “Up-regulation of hsa-miR-99b” value [6, 13] was 2.44 2 × log^2 and the “Up-regulation of hsa-miR-125b-2” value [6, 13] was 2.8 2 × log^2. For the same compound, the “Up-regulation of hsa-miR-134” value [6, 13] was 2.15 2 × log^2, the “Up-regulation of hsa-miR-135a” value [6, 13] was 2.45 2 × log^2 and the “Up-regulation of hsa-miR-339-3p” value [6, 13] was 2.47 2 × log^2. The “Up-regulation of hsa-miR-345” value [6, 13] was 2.82 2 × log^2, the “Up-regulation of hsa-miR-375” value [6, 13] was 3.65 2 × log^2 and the “Up-regulation of hsa-miR-422a” value [6, 13] was 4.29 2 × log^2. The “Up-regulation of hsa-miR-490-5p” value [6, 13] was 3.91 2 × log^2, the “Up-regulation of hsa-miR-516a-3p” value [6, 13] was 2.56 2 × log^2 and the “Up-regulation of hsa-miR-564” value [6, 13] was 3.28 2 × log^2. For the same compound, the “Up-regulation of hsa-miR-583” value [6, 13] was 3.97 2 × log^2, the “Up-regulation of hsa-miR-596” value [6, 13] was 5.26 2 × log^2 and the “Up-regulation of hsa-miR-614” value [6, 13] was 2.61 2 × log^2. The “Up-regulation of hsa-miR-617” value [6, 13] was 2.33 2 × log^2, the “Up-regulation of hsa-miR-629” value [6, 13] was 3.38 2 × log^2 and the “Up-regulation of hsa-miR-630” value [6, 13] was 4.3 2 × log^2. The “Up-regulation of hsa-miR-654-5p” value [6, 13] was 3.39 2 × log^2, the “Up-regulation of hsa-miR-662” value [6, 13] was 3.59 2 × log^2 and the “Up-regulation of hsa-miR-663” value [6, 13] was 2.05 2 × log^2. For the same compound, the “Up-regulation of hsa-miR-708” value [6, 13] was 3.48 2 × log^2, the “Up-regulation of hsa-miR-718” value [6, 13] was 2.97 2 × log^2 and the “Up-regulation of hsa-miR-887” value [6, 13] was 5.14 2 × log^2. For the same compound, the “Up-regulation of hsa-miR-1181” value [6, 13] was 2.06 2 × log^2, the “Up-regulation of hsa-miR-1225-5p” value [6, 13] was 2.38 2 × log^2 and the “Up-regulation of hsa-miR-1228” value [6, 13] was 2.24 2 × log^2. For the same compound, the “Up-regulation of hsa-miR-1246” value [6, 13] was 2.13 2 × log^2, the “Up-regulation of hsa-miR-1268” value [6, 13] was 2.84 2 × log^2 and the “Up-regulation of hsa-miR-1915” value [6, 13] was 2.22 2 × log^2. The “Up-regulation of hsa-miR-1972” value [6, 13] was 2.22 2 × log^2, the “Up-regulation of hsa-miR-1973” value [6, 13] was 3.08 2 × log^2 and the “Up-regulation of hsa-miR-2117” value [6, 13] was 2.65 2 × log^2. For the same compound, the “IC50 for all melanoma cell lines” value ([7]; NCI60 melanoma cell lines) was “low millimolar range”, the IC50 ([7]; NCI60 melanoma cell lines, read-out: IC50 for all melanoma cell lines) was 3.1 mM and the IC50 ([7]; NCI60 melanoma cell lines, read-out: IC50 range across melanoma cell lines) was 0.2 to 8.5 mM. For the same compound, the “cytotoxic effect on melanoma cells” value ([7]; physiological ascorbate (200 μM)) was “no cytotoxic effect”, the IC50 [8] was 4.5 mM and the blood peak concentration [9] was “up to 49 mM”. The intracellular peroxide radicals [10] was “high amount”, the “percentage of sub-G1 (apoptotic) cells determined by FACS” value [10] was “increased percentage” and the GLUT-1 expression [11] was “decreased”.
